Measured values from PubChem BioAssay AID330 (DTP/NCI, 2004).
Values joined by “and” are separate entries in the source; they are usually repeats but may differ in a detail not shown here. Identical values can stand only once. Inconclusive results and toxic doses are left out.

Tested on: P388 leukemia ip, CD2F1 mice, survival T/C
Test: NCI In Vivo Anticancer Drug Screen. Data for tumor model P388 Leukemia (intraperitoneal) in CD2F1 (CDF1) mice
Conditions: endpoint: median survival time, higher = longer survival
Procedure, shortened: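 Mice carrying the transplanted tumor received test compound or vehicle. Survival was recorded in each group, and the value is the treated-group measurement divided by that of the vehicle-treated control group.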

[1] = dose: 50.0 mg/kg/injection, schedule: Q01DX009 (ip), vehicle: saline
[2] = dose: 50.0 mg/kg/injection, schedule: Q01DX005 (ip), vehicle: Klucel (hydroxypropylcellulose) (HPC)
[3] = dose: 100.0 mg/kg/injection, schedule: Q01DX005 (ip), vehicle: Klucel (hydroxypropylcellulose) (HPC)
[4] = dose: 200.0 mg/kg/injection, schedule: Q01DX005 (ip), vehicle: Klucel (hydroxypropylcellulose) (HPC)
[5] = dose: 50.0 mg/kg/injection, schedule: Q01DX005 (ip), vehicle: saline with Tween-80
[6] = dose: 100.0 mg/kg/injection, schedule: Q01DX005 (ip), vehicle: saline with Tween-80
[7] = dose: 200.0 mg/kg/injection, schedule: Q01DX005 (ip), vehicle: saline with Tween-80

COc1cc2c(c(OC)c1OC)-c1ccc(=O)c(OC)cc1C=CC2
T/C (dose: 2.5 mg/kg/injection, schedule: Q01DX009 (ip), vehicle: Klucel (hydroxypropylcellulose) (HPC)): 100 % of control | T/C (dose: 5.0 mg/kg/injection, schedule: Q01DX009 (ip), vehicle: Klucel (hydroxypropylcellulose) (HPC)): 106 % of control | T/C (dose: 10.0 mg/kg/injection, schedule: Q01DX009 (ip), vehicle: Klucel (hydroxypropylcellulose) (HPC)): 104 % of control and 108 % of control | T/C (dose: 20.0 mg/kg/injection, schedule: Q01DX009 (ip), vehicle: Klucel (hydroxypropylcellulose) (HPC)): 103 % of control and 109 % of control | T/C (dose: 40.0 mg/kg/injection, schedule: Q01DX009 (ip), vehicle: Klucel (hydroxypropylcellulose) (HPC)): 106 % of control and 123 % of control | T/C (dose: 80.0 mg/kg/injection, schedule: Q01DX009 (ip), vehicle: Klucel (hydroxypropylcellulose) (HPC)): 115 % of control

Cc1ccc(NC(=O)CCSC(=O)Nc2ccc(C)cc2)cc1
T/C (dose: 100.0 mg/kg/injection, schedule: Q04DX002 (ip), vehicle: Klucel (hydroxypropylcellulose) (HPC)): 101 % of control | T/C (dose: 200.0 mg/kg/injection, schedule: Q04DX002 (ip), vehicle: Klucel (hydroxypropylcellulose) (HPC)): 104 % of control | T/C (dose: 400.0 mg/kg/injection, schedule: Q04DX002 (ip), vehicle: Klucel (hydroxypropylcellulose) (HPC)): 104 % of control

Cc1ccc(C2OC(c3ccc(C)cc3)C(C)C(=O)C2C)cc1 (stereo not drawn)
T/C [1]: 90 % of control | T/C (dose: 100.0 mg/kg/injection, schedule: Q01DX009 (ip), vehicle: saline): 94 % of control | T/C (dose: 200.0 mg/kg/injection, schedule: Q01DX009 (ip), vehicle: saline): 99 % of control

O=C1C=C2CCCCCCCC(C1)C2 (stereo not drawn)
T/C [2]: 113 % of control | T/C [3]: 108 % of control | T/C [4]: 110 % of control

COc1cc(C2=N/C(=C/c3cccc(O)c3O)C(=O)O2)cc(OC)c1OC
T/C (dose: 6.25 mg/kg/injection, schedule: Q01DX009 (ip), vehicle: Klucel (hydroxypropylcellulose) (HPC)): 101 % of control | T/C (dose: 12.5 mg/kg/injection, schedule: Q01DX009 (ip), vehicle: Klucel (hydroxypropylcellulose) (HPC)): 96 % of control

CNC(=O)Oc1ccc[nH]c1=O
T/C (dose: 16.0 mg/kg/injection, schedule: Q01DX009 (ip), vehicle: saline with Tween-80): 106 % of control and 110 % of control | T/C (dose: 25.0 mg/kg/injection, schedule: Q01DX009 (ip), vehicle: saline): 106 % of control and 112 % of control | T/C (dose: 25.0 mg/kg/injection, schedule: Q01DX009 (sc), vehicle: saline): 102 % of control and 109 % of control | T/C (dose: 32.0 mg/kg/injection, schedule: Q01DX009 (ip), vehicle: saline with Tween-80): 112 % of control and 122 % of control | T/C [1]: 116 % of control and 120 % of control | T/C (dose: 50.0 mg/kg/injection, schedule: Q01DX009 (sc), vehicle: saline): 109 % of control and 115 % of control | T/C (dose: 64.0 mg/kg/injection, schedule: Q01DX009 (ip), vehicle: saline with Tween-80): 120 % of control | T/C (dose: 100.0 mg/kg/injection, schedule: Q01DX009 (sc), vehicle: saline): 111 % of control and 113 % of control | T/C (dose: 128.0 mg/kg/injection, schedule: Q01DX009 (ip), vehicle: saline with Tween-80): 120 % of control | T/C (dose: 200.0 mg/kg/injection, schedule: Q01DX009 (sc), vehicle: saline): 115 % of control and 120 % of control | T/C (dose: 400.0 mg/kg/injection, schedule: Q01DX009 (ip), vehicle: saline): 153 % of control | T/C (dose: 400.0 mg/kg/injection, schedule: Q01DX009 (sc), vehicle: saline): 122 % of control

Nc1ccccc1Sc1ccc2c3c(cccc13)C(=O)N(c1ccccc1)C2=O
T/C [5]: 91 % of control | T/C [6]: 90 % of control | T/C [7]: 100 % of control

CC1=C(C(=O)Nc2cc(C)ccc2C)C(c2cccc([N+](=O)[O-])c2)C(C(=O)Nc2cc(C)ccc2C)=C(C)N1
T/C (dose: 60.0 mg/kg/injection, schedule: Q01DX005 (ip), vehicle: Klucel (hydroxypropylcellulose) (HPC)): 88 % of control | T/C (dose: 120.0 mg/kg/injection, schedule: Q01DX005 (ip), vehicle: Klucel (hydroxypropylcellulose) (HPC)): 89 % of control

COc1c(Cl)cc(Cl)cc1C(=O)NO
T/C [5]: 97 % of control | T/C [6]: 106 % of control | T/C [7]: 112 % of control

CSc1nc(C#N)c(/N=C\N(C)C)s1
T/C [2]: 100 % of control | T/C [3]: 99 % of control | T/C [4]: 100 % of control

CC1C(=O)CCC2(C)C1CCC1C3CCC(O)C3(C)CCC12 (stereo not drawn)
T/C (dose: 12.5 mg/kg/injection, schedule: Q01DX009 (ip), vehicle: saline with Tween-80): 95 % of control | T/C (dose: 25.0 mg/kg/injection, schedule: Q01DX009 (ip), vehicle: saline with Tween-80): 109 % of control | T/C (dose: 50.0 mg/kg/injection, schedule: Q01DX009 (ip), vehicle: saline with Tween-80): 95 % of control
